In general, EC50 refers to the concentration at which the effect is half-maximal. The term Kd denotes the equilibrium constant for the complex coming apart. A lower Kd goes with higher affinity. In general, CC50 refers to the concentration giving 50% cytotoxicity.

One series concerns hPIV3 C243 virus strain. The class given is cell-based, hPIV. To be noted: LLC-MK2 cells, hPIV3 C243, plaque reduction; read-out: EC50 against hPIV3 virus. The protocol: Rhesus monkey kidney cells (LLC-MK2) were sourced from the ATCC, with a catalog number CCL-7.1. The cells were cultured in a DMEM culture solution in which 10% fetal bovine serum, 1% non-essential amino acids, 1% sodium pyruvate, 1% L-glutamine, 100 U/ml penicillin, and 100 μg/ml streptomycin were added.
An HPIV-3 plaque experiment culture medium consisted of a DMEM culture solution added with 2% fetal bovine serum, 1% non-essential amino acids, 1% sodium pyruvate, 1% L-glutamine, 100 U/ml penicillin, and 100 μg/ml streptomycin.
The hPIV Type 3 (hPIV3 C243) was sourced from the ATCC, with a catalog number VR-93.
This study used the plaque reduction experiment to detect the in-vitro activity of the test sample against the hPIV3 C243 virus strain, and Human Anti-HPIV3 Monoclonal Antibody, clone PIA174 was an experimental system control. The test sample and a system experimental antibody were tested at 8 concentrations in duplicated wells.
The LLC-MK2 cells were digested with trypsin and then diluted to a concentration of 400,000 cells per milliliter by using a cell culture solution containing 2% serum. The diluted cells were added to a 96-well cell test board, with 100 μL per well, corresponding to 40,000 cells per well. The cells were cultured overnight in a 37° C. incubator with 5% CO2.
On the next day, the sample diluted at a fold ratio and an equal volume of virus (approximately 200 PFU per well) were well mixed and incubated at 37° C. in 5% CO2 for 1 hour. Then, the culture solution in the 96-well cell test board was discarded, the sample virus mixed solution (100 μL) was added to the 96-well cell culture plate, and incubated at 37° C. in 5% CO2 for 2 hours. After 2 h, the sample virus mixed solution was discarded, 200 μL of an experiment culture medium containing the test sample with a corresponding concentration was added, and the culture solution contained 0.8% CMC. A final concentration of DMSO in the culture solution was 0.5%. A control antibody was directly added to the experiment culture solution containing 0.8% CMC. A cell control (cells, without compound treatment or viral infection) and a viral control (cell infection virus, without compound treatment) were set. The cells were cultured for 1 day in the 37° C. incubator with 5% CO2.
The cells were fixed with 4% paraformaldehyde, and then permeabilization was performed with 0.5% Triton X-100. After the plate was washed with DPBS, a hPIV specific antibody (1:2000 dilution) was added and incubated at 37° C. for 1.5 h. Then, a secondary antibody (1:500 dilution) was added and incubated at 37° C. for 1 hour. The secondary antibody was discarded, a TrueBlue solution was added, dyeing was performed for approximately 10 minutes; and the plate was washed with running water and then air-dried, and the number of spots in each well was counted by using a microplate imaging counter.
Raw data was used for calculating the antiviral activity of the samples, and a calculation formula was shown as follows.
% inhibition rate=100−(sample value-cell control average value)/(virus control average value-cell control average value)×100
Non-linear fitting analysis was performed on the inhibition rate of the sample by using GraphPad Prism (version 10), so as to calculate an EC50 value for the sample. A fitting formula was log (inhibitor) vs. response-Variable slope (four parameters).

Another series has as its target T1, hMPV-N46 (127-172) (Human metapneumovirus, UniProt Q6WB98).
T1 construct: hMPV-N46 (127-172)
The experiment in a line: SPR affinity to hMPV-N46 coupled on CM5 chip. The class given is binding. On the procedure:
hMPV and hPIV were two viruses having a typical Class I fusion protein-F protein. An F protein precursor F0 was cracked into F1 and F2 subunits. […] When the compound flowed through a chip surface, changes in an SPR signal were monitored in real time, binding and dissociation processes were recorded, and a binding rate constant (ka) and a dissociation rate constant (kd) were further obtained through kinetic analysis, thereby calculating an equilibrium dissociation constant (KD=kd/ka).
A CM5 chip with a catalog number 29149603, an amino coupling reagent kit with a catalog number BR100050, HBS-EP+Buffer (10×), sodium acetate (pH 4.0), and a 10 mM glycine-HCl buffer (pH 2.0) were all purchased from GE Health.
CM5 chip coupling: Channels 2 and 4 of the CM5 chip were activated for 7 min by using a freshly-prepared mixture of 50 mM Hydroxy succinimide (NHS) and 200 mM 1-(3-Dimethylaminopropyl)-3-ethylcarbodiimide (EDC) according to 1:1; and then, hMPV-N46 or hPIV-N51 was diluted and dissolved with sodium acetate with 4.0 pH to a concentration of 30 μM, with a flow rate of 10 μl/min and time of 600 s. An experimental buffer was HBS-EP+buffer (1×). Finally, the chip was blocked with 1 M ethanolamine. The instrument was set to a temperature of 25° C.
Affinity detection: the buffer used in the experiment was HBS-EP+buffer (1×), and a multi-cycle dynamic mode was used. Channels 1 and 3 of the chip served as blank reference channels; polypeptides to be detected sequentially flowed through Channels 2 and 4 at concentrations of 0 μM, 0.04 µM, 0.12 µM, 0.37 μM, 1.11 µM, 3.33 µM, 10 µM, and 30 μM; the flow rate was 30 μl/min, binding was performed for 180 s, and dissociation was performed for 120 s. Finally, the chip was regenerated by injecting 10 mM glycine (pH 2.0). The instrument was set to a temperature of 25° C.

Series [1] in a line: Cytotoxicity test in HEp-2 cells (CCK8 cell viability). The class given is cell-based. The settings on record: human; HEp-2 cells, CCK8, 1 day; read-out: CC50. The method, boiled down:
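Compound dilutions (final DMSO 0.5%) were applied for 1 day to HEp-2 cells plated at 30,000 per well the day before. CCK8 signal gave survival relative to cell and medium controls, and a four-parameter log(inhibitor)-response fit yielded CC50.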

Where a SMILES comes first, the peptide text is derived from it. The star is where a group is joined. Succinyl(4-O-cholesteryl) = CC(C)CCC[C@@H](C)[C@H]1CC[C@H]2[C@@H]3CC=C4C[C@@H](OC(=O)CCC(=O)*)CC[C@]4(C)[C@H]3CC[C@]12C

T1 sequence (Q6WB98 127-172): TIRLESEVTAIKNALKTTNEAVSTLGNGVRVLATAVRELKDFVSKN

In the case of `CC[C@H](C)[C@H](NC(=O)[C@H](CCCCN)NC(=O)[C@H](CCCCN)NC(=O)[C@H](CC(C)C)NC(=O)[C@H](CO)NC(=O)[C@H](CCC(=O)O)NC(=O)[C@H](CCC(=O)O)NC(=O)[C@@H](NC(=O)[C@H](CCCCN)NC(=O)[C@H](CCCCN)NC(=O)[C@H](CC(N)=O)NC(=O)[C@@H](NC(=O)[C@H](CCC(=O)O)NC(=O)[C@H](CCC(=O)O)NC(=O)[C@@H](NC(=O)[C@H](CCCCN)NC(=O)[C@H](CCCCN)NC(=O)[C@H](CC(=O)O)NC(=O)[C@H](Cc1ccccc1)NC(=O)[C@H](CCC(=O)O)NC(=O)[C@H](CC(=O)O)NC(=O)[C@H](CO)NC(C)=O)[C@@H](C)CC)C(C)C)[C@@H](C)CC)C(=O)N[C@@H](CCC(=O)O)C(=O)N[C@@H](CCC(=O)O)C(=O)N[C@@H](CO)C(=O)N[C@@H](CC(=O)O)C(=O)N[C@@H](CCCCN)C(=O)N[C@@H](CCCCN)C(=O)N[C@@H](CC(C)C)C(=O)NCC(=O)N[C@@H](CO)C(=O)NCC(=O)N[C@@H](CO)C(=O)NCC(=O)N[C@@H](CCCCNC(=O)CCC(=O)O[C@H]1CC[C@@]2(C)C(=CC[C@H]3[C@@H]4CC[C@H]([C@H](C)CCCC(C)C)[C@@]4(C)CC[C@@H]32)C1)C(N)=O` [Compound 20] (Ac-SDEFDKKIEEVNKKIEESLKKIEESDKKLGSGSGK(Succinyl(4-O-cholesteryl))-NH2), the EC50 with hPIV3 C243 virus strain was 0.0595 µM. This molecule also came in with a Kd on hMPV-N46 (127-172) of 19.1 µM. Moreover, the half-maximal cytotoxic concentration (CC50) at 1 day in series [1] was found to be 29 µM.
Turning to “Ac-FDEEISQVNEKINQSLAFIRKSDELLHNVNAGKSTTEAAAKK(Succinyl(4-O-cholesteryl))-NH2 [Compound 26]”, in the series with hPIV3 C243 virus strain, the EC50 turned out to be 0.00135 µM. Further, the Kd on hMPV-N46 (127-172) came out at 2.15 µM. Besides, in series [1], the CC50 at 1 day is above 100 µM.
Regarding `CC[C@H](C)[C@H](NC(=O)[C@H](CCCCN)NC(=O)[C@H](CCCCN)NC(=O)[C@H](CC(C)C)NC(=O)[C@H](CO)NC(=O)[C@H](CCC(=O)O)NC(=O)[C@H](CCC(=O)O)NC(=O)[C@@H](NC(=O)[C@H](CCCCN)NC(=O)[C@H](CCCCN)NC(=O)[C@H](CC(N)=O)NC(=O)[C@@H](NC(=O)[C@H](CCC(=O)O)NC(=O)[C@H](CCC(=O)O)NC(=O)[C@@H](NC(=O)[C@H](CCCCN)NC(=O)[C@H](CCCCN)NC(=O)[C@H](CC(=O)O)NC(=O)[C@H](Cc1ccccc1)NC(=O)[C@H](CCC(=O)O)NC(=O)[C@H](CC(=O)O)NC(=O)[C@H](CO)NC(C)=O)[C@@H](C)CC)C(C)C)[C@@H](C)CC)C(=O)N[C@@H](CCC(=O)O)C(=O)N[C@@H](CCC(=O)O)C(=O)N[C@@H](CO)C(=O)N[C@@H](CC(=O)O)C(=O)N[C@@H](CCCCN)C(=O)N[C@@H](CCCCN)C(=O)N[C@@H](CC(C)C)C(=O)N[C@@H](CCC(=O)O)C(=O)N[C@@H](C)C(=O)N[C@@H](C)C(=O)N[C@@H](C)C(=O)N[C@@H](CCCCN)C(=O)N[C@@H](CCCCNC(=O)CCC(=O)O[C@H]1CC[C@@]2(C)C(=CC[C@H]3[C@@H]4CC[C@H]([C@H](C)CCCC(C)C)[C@@]4(C)CC[C@@H]32)C1)C(N)=O` [Compound 16] (Ac-SDEFDKKIEEVNKKIEESLKKIEESDKKLEAAAKK(Succinyl(4-O-cholesteryl))-NH2), the EC50 with hPIV3 C243 virus strain was determined as 0.059 µM. Binding at hMPV-N46 (127-172) was put at a Kd of 3.06 µM. In addition, the half-maximal cytotoxic concentration (CC50) at 1 day in series [1] came to 17.1 µM.
As to `CC[C@H](C)[C@H](NC(=O)[C@H](CCCCN)NC(=O)[C@H](CCC(=O)O)NC(=O)[C@H](CC(C)C)NC(=O)[C@H](CO)NC(=O)[C@H](CCC(N)=O)NC(=O)[C@H](CC(N)=O)NC(=O)[C@@H](NC(=O)[C@H](CCCCN)NC(=O)[C@H](CCC(=O)O)NC(=O)[C@H](CC(N)=O)NC(=O)[C@@H](NC(=O)[C@H](CCC(N)=O)NC(=O)[C@H](CO)NC(=O)[C@H](C)NC(=O)[C@H](CC(=O)O)NC(=O)[C@H](Cc1ccccc1)NC(=O)[C@@H](NC(=O)[C@H](CC(C)C)NC(=O)[C@H](CCC(=O)O)NC(=O)[C@H](CC(=O)O)NC(=O)[C@H](Cc1ccc(O)cc1)NC(C)=O)C(C)C)C(C)C)[C@@H](C)CC)C(=O)N[C@@H](CCCNC(=N)N)C(=O)N[C@@H](CCCCN)C(=O)N[C@@H](CO)C(=O)N[C@@H](CC(=O)O)C(=O)N[C@@H](CCC(=O)O)C(=O)N[C@@H](CC(C)C)C(=O)N[C@@H](CC(C)C)C(=O)N[C@@H](Cc1c[nH]cn1)C(=O)N[C@@H](CC(N)=O)C(=O)N[C@H](C(=O)N[C@@H](CCC(=O)O)C(=O)N[C@@H](C)C(=O)N[C@@H](C)C(=O)N[C@@H](C)C(=O)N[C@@H](CCCCN)C(=O)N[C@@H](CCCCNC(=O)CCC(=O)O[C@H]1CC[C@@]2(C)C(=CC[C@H]3[C@@H]4CC[C@H]([C@H](C)CCCC(C)C)[C@@]4(C)CC[C@@H]32)C1)C(N)=O)C(C)C` [Compound 30] (Ac-YDELVFDASQVNEKINQSLEKIRKSDELLHNVEAAAKK(Succinyl(4-O-cholesteryl))-NH2), the EC50 in the series on hPIV3 C243 virus strain was found to be 0.0482 µM. In addition, the Kd at hMPV-N46 (127-172) is 0.187 µM. In addition, in series [1], the CC50 at 1 day came to 6.2 µM.
For `CC[C@H](C)[C@H](NC(=O)[C@H](CCCCN)NC(=O)[C@H](CCCCN)NC(=O)[C@H](CC(C)C)NC(=O)[C@H](CO)NC(=O)[C@H](CCC(=O)O)NC(=O)[C@H](CCC(=O)O)NC(=O)[C@@H](NC(=O)[C@H](CCCCN)NC(=O)[C@H](CCCCN)NC(=O)[C@H](CC(N)=O)NC(=O)[C@@H](NC(=O)[C@H](CCC(=O)O)NC(=O)[C@H](CCC(=O)O)NC(=O)[C@@H](NC(=O)[C@H](CCCCN)NC(=O)[C@H](CCCCN)NC(=O)[C@H](CC(=O)O)NC(=O)[C@H](Cc1ccccc1)NC(=O)[C@H](CCC(=O)O)NC(=O)[C@H](CC(=O)O)NC(=O)[C@H](Cc1c[nH]c2ccccc12)NC(C)=O)[C@@H](C)CC)C(C)C)[C@@H](C)CC)C(=O)N[C@@H](CCC(=O)O)C(=O)N[C@@H](CCC(=O)O)C(=O)N[C@@H](CO)C(=O)N[C@@H](CC(=O)O)C(=O)N[C@@H](CCCCN)C(=O)N[C@@H](CCCCN)C(=O)N[C@@H](CC(C)C)C(=O)N[C@@H](CCC(=O)O)C(=O)N[C@@H](C)C(=O)N[C@@H](C)C(=O)N[C@@H](C)C(=O)N[C@@H](CCCCN)C(=O)N[C@@H](CCCCNC(=O)CCC(=O)O[C@H]1CC[C@@]2(C)C(=CC[C@H]3[C@@H]4CC[C@H]([C@H](C)CCCC(C)C)[C@@]4(C)CC[C@@H]32)C1)C(N)=O` [Compound 13] (Ac-WDEFDKKIEEVNKKIEESLKKIEESDKKLEAAAKK(Succinyl(4-O-cholesteryl))-NH2), in that order: 0.0356 µM, 3.21 µM and 30.7 µM.

The values are drawn from patent US20260250325A1, “Antiviral Polypeptide Membrane Fusion Inhibitor, and Preparation Method and Application Thereof” (priority 2025, published 2026).
